{"source": "PubChem BioAssay AID1671245", "target": "Casein kinase I isoform epsilon (Homo sapiens) (UniProt P49674)", "sequence (P49674 whole entry, looked up, canonical isoform)": "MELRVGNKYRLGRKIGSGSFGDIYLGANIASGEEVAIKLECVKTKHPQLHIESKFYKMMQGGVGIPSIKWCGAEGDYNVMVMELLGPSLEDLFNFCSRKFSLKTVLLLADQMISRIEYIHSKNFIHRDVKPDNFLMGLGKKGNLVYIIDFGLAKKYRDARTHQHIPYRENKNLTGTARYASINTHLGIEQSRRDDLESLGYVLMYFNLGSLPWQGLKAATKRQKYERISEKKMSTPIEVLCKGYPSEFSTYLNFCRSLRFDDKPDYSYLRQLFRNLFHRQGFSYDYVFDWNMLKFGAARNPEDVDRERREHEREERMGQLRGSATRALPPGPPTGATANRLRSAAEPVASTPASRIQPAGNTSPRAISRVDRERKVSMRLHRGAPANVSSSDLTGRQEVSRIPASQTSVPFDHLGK", "assay": "inhibition of CK1 epsilon activity – biochemical, Z'-LYTE, FRET, direct format, dose response (AID 1671245)", "conditions": "Z'-LYTE FRET kinase activity assay, recombinant CSNK1E"}
{"smiles": "Brc1c(Br)c(Br)c2n[nH]nc2c1Br", "values": [{"measurement": "IC50", "value": 4.83, "unit": "µM"}]}
